Bridges are numbered along the chain shown (N, C = ends). Where no end group is shown, it is not given here.
Legend:
DV2 = assay type: cell-based, dengue virus; conditions: peptides 0.1 mg/ml; Vero cells
Description: (§1) FIG. 17. Inhibition of the infection of Vero cells with DV1 and DV2. (A) Six-well plates with a monolayer at approximately 90% confluence were incubated for 30 min. at 37° C. with dilutions of the peptides in MEM medium. A dilution of either DV1 strain West Pac 74 or DV2 strain S16803 was then added, calculated so as to obtain an average of 100 lytic plaques per well, and the plates were incubated for 30 min. at 37° C. with the virus/peptide mixture. After the incubation the cells were washed twice, received the addition of MEM medium supplemented with non-essential amino acids, 1% fetal calf serum, 1% CMC, and finally were incubated for 5 days at 37° C. under a CO2 atmosphere. (B) Inhibitory effect of the peptides at 100 μMol/L. NRpep: Non-related peptide. Data on the sequence of the peptides 3H5pept (SEQ ID. 27), pepDIII-1 (SEQ ID. 28), HIII2CL (SEQ ID. 5) and HIII3CL (SEQ ID. 7), as well as on the region they span on DIII from DV, can be obtained from FIG. 11. The calculation of the inhibition percentages is described in Materials and Methods. (C) Inhibition of DV2 infection by using varying peptide concentrations. The viral plaques were visualized by staining with Naphtol Blue Black. Cell control: Untreated cells. Virus control: Cells incubated with the virus, but without peptide.
(§2) DIII has one of the most variable regions of the exposed surface of protein E. In fact, one of the antigenic characteristics of this domain is that the antibodies obtained against this region are predominantly serotype-specific (Roehrig J T, Bolin R A, Kelly R G (1998) Monoclonal antibody mapping of the envelope glycoprotein of the dengue 2 virus, Jamaica Virology 246:317-28). However, during the inhibition assay with different DV serotypes, the peptides display a wide-spectrum inhibitory activity, efficiently inhibiting the infection of strains of the homologous, as well as of the heterologous serotypes (table 3). It is important to notice that at the assayed concentration (0.1 mg/ml) all the peptides in all the conditions, with the exception of peptide HIII4CL for DV3, produced higher than 50% inhibition levels.

DV1 = assay type: cell-based, dengue virus; conditions: peptides 0.1 mg/ml; Vero cells
Description: as §1, §2

DV3 = assay type: cell-based, dengue virus; conditions: peptides 0.1 mg/ml; Vero cells
Text: as §2

DV4 = assay type: cell-based, dengue virus; conditions: peptides 0.1 mg/ml; Vero cells
Text: as §2

mAb 3H5 = assay: Recognition by mAb 3H5 in Western blotting / dot blotting; assay type: binding; conditions: signal lost upon reduction and carbamidomethylation
Text: FIG. 12. (A) Sequence of the peptides designed to mimic different regions on the surface of DIII. The residue numbering corresponds to the sequence for protein E of DV serotype 2, strain Jamaica 1409, available from the Swiss-Prot databank with access number P07564. The underlined residues are not present in protein E and were introduced during design. The cysteine residues are used to restrict the structural mobility of the peptide by a disulphide bridge. (B) Recognition of the HDIII2Cs peptide by the neutralizing antibody 3H5 in a Western blotting assay. 50 μg of the BSA-peptide conjugates and 20 μg of the recombinant protein PD5 were electrophoresed on a 12.5% SDS-PAGE gel and transferred to a nitrocellulose membrane. After blocking, the membrane was incubated with a dilution (30 μg/mL) of the 3H5 mAb for 2 hours at 25° C. The bound antibody was detected with an anti-mouse IgG-peroxidase conjugate, and the blots were developed using chemiluminescence. (C) Two pieces of nitrocellulose membrane were sensitized in parallel with 10 μg of each variant of the protein and of the peptides. […]
With the aim of evaluating the recognition of peptide HDIII2Cs by mAb 3H5, peptide-BSA conjugates were prepared and analyzed by Western blotting with this antibody (FIG. 12B). […]

A2MR receptor = assay: Effect of peptides on the binding of fluoresceinated A2M and RAPR13 to Vero cells (flow cytometry); assay type: cell-based, monkey; conditions: increasing peptide concentrations (FIG. 19)
Description: FIG. 19. Effect produced on the binding of A2M and RAPR13 to the surface of Vero cells by simultaneous incubation with the peptides. The fluoresceinated A2M and RAP13 proteins were incubated for 30 min. at 4° C. with pre-fixed Vero cells in the presence of varying concentrations of HIII2CL and 3H5pept in order to reach the indicated molar peptide/protein ratios. The binding of the labeled ligands was detected by flow cytometry.
In order to obtain a direct evidence of the interaction with the A2MR receptor, the effect of one of the designed peptides on the binding of the natural ligands of A2MR to Vero cells was investigated. The assay was performed with fluoresceinated A2M and RAPR13, measuring their binding to Vero cells in the presence of increasing concentrations of the HDIII2CL peptide. The amount of protein bound to the cells was estimated by flow cytometry, using recombinant human EGF (rhEGF) as a negative control for the experiment, since it is known that Vero cells express the EGF receptor in their surface (Copp J, Wiley S, Ward M W, van der Geer P (2005) Hypertonic shock inhibits growth factor receptor signaling, induces caspase-3 activation, and causes reversible fragmentation of the mitochondrial network. Am J Physiol Cell Physiol. 288:C403-15).

Substance	degree of reduction of the number of viral plaques, DV2 (DV2)	degree of reduction of the number of viral plaques, DV1 (DV1)	degree of reduction of the number of viral plaques, DV3 (DV3)	degree of reduction of the number of viral plaques, DV4 (DV4)	recognition by mAb 3H5 (mAb 3H5)	amount of surface-bound RAPR13 (A2MR receptor)
HDIII2Cs: cyclic peptide corresponding to Ile379-Lys388 from protein E of DV2, Seq. ID. 4 (CIIGVEPGQLKC-NH2; disulfide 1-12)	− (Less than 10% decrease in the number of plaques)	− (Less than 10% decrease in the number of plaques)	− (Less than 10% decrease in the number of plaques)	− (Less than 10% decrease in the number of plaques)	recognized by mAb 3H5	–
3H5pept: peptide reported in the literature as part of the epitope recognized by mAb 3H5, SEQ ID. 27 (KAQLKLNWFKKGSS) [Peptide 3H5pept, reference compound]	− (Less than 10% decrease in the number of plaques)	− (Less than 10% decrease in the number of plaques)	− (Less than 10% decrease in the number of plaques)	− (Less than 10% decrease in the number of plaques)	–	does not produce variations
